The subject of this series is tissue of the dorsomedial prefrontal cortex (dmPFC) of the brain 110. Description: Raman spectroscopy of brain tissue during ex-vivo perfusion with rapamycin in the perfusate. It is filed as in vitro ADME, human. Particulars: ex-vivo perfused brain. The source says:
As previously discussed, the perfusion system 100 also includes a Raman spectroscopy probe 172 that is coupled to or positioned near the brain housing 102 for performing Raman spectroscopy on the tissue of the brain 110 in real-time during perfusion of the brain 110. Once the brain 110 is fluidly coupled to the organ line 144 and is positioned inside the brain housing 102, the Raman spectroscopy probe 172 is positioned on the surface of the brain 110 and can be operated periodically throughout the perfusion process to perform Raman spectroscopy on the tissue of the brain 110 in real-time as the brain is perfused. […]
The data generated by the Raman spectroscopy probe 172 can be used to determine whether the pharmaceutical compound is capable of crossing the blood-brain barrier. The pharmaceutical compound can be determined as capable of crossing the blood-brain barrier in response to detecting that one or more chemical compounds corresponding to the pharmaceutical compound are present in the tissue of the brain 110 using the Raman spectroscopy probe 172. In addition, the percentage of the pharmaceutical compound taken up and metabolized by the brain 110 can be determined based on the concentration of one or more chemical compounds corresponding to the pharmaceutical compound that is detected in the tissue of the brain 110 by the Raman spectroscopy probe 172. […]

Consider `CO[C@H]1C[C@@H]2CC[C@@H](C)[C@@](O)(O2)C(=O)C(=O)N2CCCC[C@H]2C(=O)O[C@H]([C@H](C)C[C@@H]2CC[C@@H](O)[C@H](OC)C2)CC(=O)[C@H](C)/C=C(\C)[C@@H](O)[C@@H](OC)C(=O)[C@H](C)C[C@H](C)/C=C/C=C/C=C/1C` [rapamycin], for which, where the note is “Raman spectroscopy of dmPFC tissue over time (FIG. 6)”, the “concentration of rapamycin present in the brain” value is recorded as “continually increased until a stable concentration 604 was reached”. The “ability to cross the blood-brain barrier of the brain” value (rapamycin added to perfusate by syringe pump, Raman spectroscopy of dmPFC tissue (FIG. 6)) was “able to cross the blood-brain barrier”.

For the origin of these results see patent US20250280821A1, “PERFUSION AND METABOLIC RESTORATION OF ORGANS” (Bexorg, Inc., priority 2024, published 2025).
